In brackets after ≈: the same amount, converted by molar mass.
Legend:
Assay type in all cases: functional, cell-based
A549 = assay: Inhibitory concentration required to inhibit A549 Cell line growth on continuous exposure time of 72 h; settings: Homo sapiens, A549, 72 h
A2780 = assay: Inhibitory concentration against A2780 proliferation after 72 hr; settings: Homo sapiens, A2780, 72 h
MCF7 = assay: Inhibitory concentration required to inhibit MCF-7 Cell line growth on continuous exposure time of 72 h; settings: Homo sapiens, MCF7, 72 h

| Structure (SMILES) | IC50 (A549) | IC50 (A2780) | IC50 (MCF7) |
| --- | --- | --- | --- |
| CC(=O)O[C@@]12CO[C@@H]1C[C@@H](O)[C@@]1(C)C(=O)[C@H](O)C3=C(C)[C@@H](OC(=O)[C@H](O)[C@@H](NC(=O)[C@@](C)(Br)[C@H](C)Br)c4ccccc4)C[C@@](O)([C@@H](OC(=O)c4ccccc4)C12)C3(C)C (some centres not stated) | 13 ng/mL (≈ 13.7 nM) | 2.13 ng/mL (≈ 2.24 nM) | 4.75 ng/mL (≈ 5 nM) |
| CC(=O)O[C@@]12CO[C@@H]1C[C@@H](O)[C@@]1(C)C(=O)[C@H](O)C3=C(C)[C@@H](OC(=O)[C@H](O)[C@@H](NC(=O)[C@](C)(Br)[C@@H](C)Br)c4ccccc4)C[C@@](O)([C@@H](OC(=O)c4ccccc4)C12)C3(C)C (some centres not stated) | 26.9 ng/mL (≈ 28.3 nM) | 4.84 ng/mL (≈ 5.1 nM) | 7.1 ng/mL (≈ 7.48 nM) |
| CC(=O)O[C@H]1C(=O)[C@@]2(C)[C@H]([C@H](OC(=O)c3ccccc3)[C@]3(O)C[C@H](OC(=O)[C@H](O)[C@@H](NC(=O)c4ccccc4)c4ccccc4)C(C)=C1C3(C)C)[C@]1(OC(C)=O)CO[C@@H]1C[C@@H]2O [PACLITAXEL] |  | 6.76 ng/mL (≈ 7.92 nM) |  |
